From ChEMBL document CHEMBL1147182, “Clubbed thiazoles by MAOS: a novel approach to cyclin-dependent kinase 5/p25 inhibitors as a potential treatment for Alzheimer's disease” (Bioorg Med Chem, 2007) come the findings set out here.

SMILES strings stand for the structures.

Series [1] concerns the target Cyclin-dependent kinase 5/CDK5 activator 1 (Homo sapiens, UniProt Q00535). Briefly: Inhibition of human cdk5/p25 by SPA. It is filed as protein-complex assay.
The nature of series [2]: Cytotoxicity against VeroC1008 cells at 6.25 to 50 ug/ml by neutral red uptake assay. The class given is cell-based. Conditions: chlorocebus sabaeus, vero.

Sequence of Cyclin-dependent kinase 5/CDK5 activator 1 (Q00535 whole entry): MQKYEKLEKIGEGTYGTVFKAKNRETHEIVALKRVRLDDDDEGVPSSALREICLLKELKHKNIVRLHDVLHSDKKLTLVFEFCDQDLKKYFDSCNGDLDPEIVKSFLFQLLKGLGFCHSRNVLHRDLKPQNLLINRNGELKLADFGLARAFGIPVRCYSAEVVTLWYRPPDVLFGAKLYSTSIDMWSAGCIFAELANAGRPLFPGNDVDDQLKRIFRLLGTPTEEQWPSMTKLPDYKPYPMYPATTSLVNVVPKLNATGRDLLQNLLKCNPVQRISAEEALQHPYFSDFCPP
Sequence of Cyclin-dependent kinase 5/CDK5 activator 1 (Q15078 whole entry, further chain): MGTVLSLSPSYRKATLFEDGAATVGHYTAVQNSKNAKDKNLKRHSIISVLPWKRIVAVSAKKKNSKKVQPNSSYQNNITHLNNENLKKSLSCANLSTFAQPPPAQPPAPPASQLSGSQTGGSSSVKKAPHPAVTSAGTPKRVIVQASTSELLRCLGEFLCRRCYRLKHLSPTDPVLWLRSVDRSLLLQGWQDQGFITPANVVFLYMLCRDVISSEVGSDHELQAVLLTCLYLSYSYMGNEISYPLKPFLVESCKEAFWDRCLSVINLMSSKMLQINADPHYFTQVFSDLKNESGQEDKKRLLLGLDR

As to `CC(=O)Nc1nc(Cc2nnc(SCC(=O)NNC(=O)c3ccccc3)n2NC(C)=O)cs1`, half-maximal inhibition in series [1] (IC50) was put at 436 nM. Further, the Activity entry in series [2] was “Non-toxic”.
For `CC(=O)Nc1nc(Cc2nnc(SCC(=O)NNC(=O)c3ccccc3)n2NC(=O)c2ccccc2)cs1` the same measures were 421 nM and “Non-toxic”.
For `CC(=O)Nn1c(Cc2csc(NC(=O)c3ccccc3)n2)nnc1SCC(=O)NN` the same measures were 186 nM and “Non-toxic”.
Turning to `CC(=O)NNC(=O)CSc1nnc(Cc2csc(NC(=O)CCl)n2)n1NC(=O)c1ccccc1`, in series [1], the IC50 – broadly, the concentration that gives 50% inhibition – was found to be 356 nM. Besides, the Activity entry in series [2] is “Non-toxic”.
In the case of `CC(=O)Nn1c(Cc2csc(NCCC(=O)O)n2)nnc1SCC(=O)NNC(=O)c1ccccc1`, in series [1], the midpoint of inhibition, the IC50, lay at 476 nM. The Activity entry in series [2] is recorded as “Non-toxic”.
For `Nn1c(CSc2nnc(Cc3csc(NC(=O)c4ccccc4)n3)n2NC(=O)c2ccccc2)n[nH]c1=S` the same measures were 4650 nM and “Non-toxic”.
Compound `CC(=O)Nn1c(Cc2csc(NCCC(=O)O)n2)nnc1SCC#N` displayed an IC50 in series [1] of 641 nM. Also, the Activity entry in series [2] is on record as “Non-toxic”.
In the same order, the values of `O=C(O)CCNc1nc(Cc2nnc(SCC(=O)NNC(=O)CCl)n2NC(=O)c2ccccc2)cs1` are 462 nM and “Non-toxic”.
In the same order, the values of `COC(=O)CSc1nnc(Cc2csc(NC(C)=O)n2)n1NC(=O)c1ccccc1` are 587 nM and “Non-toxic”.
For `CC(=O)Nn1c(Cc2csc(NCCC(=O)O)n2)nnc1SCC(=O)N/N=C/c1ccccc1` the same measures were 635 nM and “Non-toxic”.
`N#CCSc1nnc(Cc2csc(NC(=O)CCl)n2)n1NC(=O)c1ccc(Cl)cc1` gave an IC50 in series [1] of 562 nM. For the same compound, the Activity entry in series [2] is recorded as “Non-toxic”.
For `O=C(CSc1nnc(Cc2csc(NC(=O)c3ccccc3)n2)n1NC(=O)c1ccc(Cl)cc1)NNC(=O)c1ccccc1` the same measures were 484 nM and “Non-toxic”.
`CC(=O)Nc1nc(Cc2nnc(SCC(=O)NNC(=O)CCl)n2NC(C)=O)cs1` gave an IC50 in series [1] of 476 nM. Moreover, the Activity result in series [2] was “Non-toxic”.
`CC(=O)Nn1c(Cc2csc(NC(=O)CCl)n2)nnc1SCSc1nnc(Cc2csc(NC(=O)CCl)n2)n1NC(C)=O` gave an IC50 in series [1] of 847 nM. The Activity result in series [2] is listed as “Non-toxic”.
In the same order, the values of `Nn1c(S)nnc1Cc1csc(NC(=O)CCl)n1` are 390 nM and “Non-toxic”.
In the same order, the values of `CC(=O)Nc1nc(Cc2nnc(SCc3n[nH]c(=S)n3N)n2NC(=O)c2ccc(Cl)cc2)cs1` are 7480 nM and “Non-toxic”.
`CC(=O)Nn1c(S)nnc1Cc1csc(NC(=O)c2ccccc2)n1` displayed an IC50 in series [1] of 614 nM. Besides, the Activity result in series [2] was “Non-toxic”.
For `CC(=O)Nn1c(S)nnc1Cc1csc(NC(=O)CCl)n1`, in series [1], half-maximal inhibition (IC50) was put at 684 nM. For the same compound, the Activity entry in series [2] is “Non-toxic”.
Consider `CC(=O)Nn1c(Cc2csc(NC(=O)c3ccccc3)n2)nnc1SCSc1nnc(Cc2csc(NC(=O)c3ccccc3)n2)n1NC(C)=O`, for which the IC50 in series [1] was 764 nM. In series [2], the Activity entry is recorded as “Non-toxic”.
In turn, `Nn1c(S)nnc1Cc1csc(NCCC(=O)O)n1` showed an IC50 in series [1] of 264 nM. Also, the Activity result in series [2] was “Non-toxic”.
In the same order, the values of `CC(=O)Nn1c(Cc2csc(NCCC(=O)O)n2)nnc1SCSc1nnc(Cc2csc(NCCC(=O)O)n2)n1NC(C)=O` are 743 nM and “Non-toxic”.
In the same order, the values of `N#CCSc1nnc(Cc2csc(NCCC(=O)O)n2)n1NC(=O)c1ccc(Cl)cc1` are 426 nM and “Non-toxic”.
In series [1], `CC(=O)Nc1nc(Cc2nnc(SCC(=O)NNC(=O)CCl)n2NC(=O)c2ccc(Cl)cc2)cs1` registered an IC50 of 260 nM. The Activity result in series [2] is reported as “Non-toxic”.
In series [1], `CC(=O)NNC(=O)CSc1nnc(Cc2csc(NCCC(=O)O)n2)n1NC(=O)c1ccc(Cl)cc1` registered a 50% inhibitory concentration (IC50) of 352 nM. In addition, the Activity entry in series [2] was “Non-toxic”.
